Results on one compound are retold here after patent US11602518B2, “Lipidic furan, pyrrole, and thiophene compounds for use in the treatment of atrophic vaginitis” (Avoscience, LLC, priority 2016, dated 2023).

The subject of the data set is female subjects diagnosed with vaginal atrophy. The data set can be described thus: Double blind placebo control study: tissue morphometry by vaginal biopsy after topical Formula I(n) capsules. The data set is classed as in vivo, human. From the text:
The histology and morphometry of vaginal atrophy is characterized by a reduction in dermal and epidermal thickness, dermal collagen content (hydroxyproline), the number of cells in the tissue (by DNA content and histology), and dermal and epidermal protein content as well as reduction in overall dermal metabolism as measured by [^14 C]-glucose. These parameters are all increased by the action of topical administration of Formula I(n).
In a double blind placebo control study, a baseline tissue morphometry was determined by biopsy on 20 female subjects diagnosed with vaginal atrophy. Subjects applied a capsule daily containing either Formula I(n) (3%) and avocado oil or simply a capsule of avocado oil alone.

[1] abbreviates: biopsy after 60 days, daily capsule 3% in avocado oil.
Where [2] appears, read: biopsy after 60 days, daily capsule 3% in avocado oil, over control.

Turning to `CCCCC/C=C\C/C=C\CCCCCCCc1ccco1` [Formula I(n), 2-(8Z,11Z-heptadecadienyl)furan], the “increase in dermal thickness” value (biopsy after 60 days vs baseline, daily capsule 3% in avocado oil, control vehicle 7%) was 53%. Where the note is “biopsy after 60 days vs baseline, daily capsule 3% in avocado oil, control vehicle 9%”, the “increase in epidermal thickness” value is on record as 76%. Moreover, under setting [1], the “Dermal fibroblast population (cross section) increase” value is on record as 231%; the “Dermal fibroblast population (number) increase” value amounted to 127%; the “increase in aerobic glucose utilization or metabolism” value was 413%; the “increase in total thickness (epidermal and dermal combined)” value was found to be 156%. Under setting [2], the “DNA content increase over control” value came to 68%, the “Dermal collagen content increase over control” value amounted to 74% and the “Protein content increase over control” value was 122%. Further, the inflammatory response entry (biopsy after 60 days, daily topical capsule, Formula I(n) (3%) and avocado oil) is “No observable inflammatory response”. Further, the “dermal and epidermal thickness, dermal collagen content, number of cells, dermal and epidermal protein content, overall dermal metabolism” value (topical administration, summary statement) was “increased”.
